From ChEMBL document CHEMBL1127150, “Enantioselective synthesis and antielastase activity of 1,3,4-trisubstituted and 3,4-disubstituted -lactam antibiotics” (Bioorg Med Chem Lett, 1993)
The source made the active and inactive calls. The calls are words filed in the database; no cut-off is given here.

How the values were obtained:
[1] = target: T1, Neutrophil elastase (Homo sapiens, UniProt P08246); test: The compound was evaluated in vitro for the inhibition of human leukocyte elastase(HLE)
T1 sequence (P08246 whole entry): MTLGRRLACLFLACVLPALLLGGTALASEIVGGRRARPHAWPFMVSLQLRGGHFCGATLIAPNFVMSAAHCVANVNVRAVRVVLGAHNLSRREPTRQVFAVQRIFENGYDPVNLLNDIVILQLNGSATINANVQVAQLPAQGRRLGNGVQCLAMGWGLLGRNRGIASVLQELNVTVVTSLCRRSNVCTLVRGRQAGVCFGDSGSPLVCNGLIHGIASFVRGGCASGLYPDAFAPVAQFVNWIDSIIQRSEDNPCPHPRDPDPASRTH

[2] = target: T2, Neutrophil elastase (Homo sapiens) (UniProt P08246); test: The compound was evaluated in vitro for the inhibition of human leukocyte elastase(HLE); Not Active
T2 sequence (whole entry): T1 sequence (P08246 whole entry)

[3] = target: T3, Chymotrypsin-like elastase family member 2A (Sus scrofa) (UniProt P08419); test: The compound was evaluated in vitro for the inhibition of Pancreatic elastase (PPE); Not Active
T3 sequence (whole entry): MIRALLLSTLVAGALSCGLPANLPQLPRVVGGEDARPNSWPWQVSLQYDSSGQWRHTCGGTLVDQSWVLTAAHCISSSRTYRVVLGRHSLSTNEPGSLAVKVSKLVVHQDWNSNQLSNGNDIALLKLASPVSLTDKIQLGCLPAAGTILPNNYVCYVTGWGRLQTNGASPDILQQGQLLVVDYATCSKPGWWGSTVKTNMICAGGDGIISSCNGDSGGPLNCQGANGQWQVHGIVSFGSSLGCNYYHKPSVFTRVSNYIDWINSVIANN

| Structure (SMILES) | IC50 [1] [µM] | Activity [2] | Activity [3] |
| --- | --- | --- | --- |
| CCCC[C@H]1C(=O)N([C@@H](C2SCCCS2)C2OC(C)(C)OC2C2COC(C)(C)O2)[C@H]1/C(C)=C/c1ccccc1 (stereo not given in full) | 13 |  |  |
| CO[C@@H]1C(=O)N[C@@H]1C(C)=O |  | inactive | inactive |
| CO[C@H]1C(=O)N([C@@H](C2SCCCS2)C2OC(C)(C)OC2C2COC(C)(C)O2)[C@H]1/C=C/c1ccccc1 (stereo not given in full) | 76 |  |  |
| CCCC[C@@H]1C(=O)N[C@@H]1/C(C)=C/c1ccccc1 (stereo in doubt; 10) |  | inactive | inactive |
| CO[C@@H]1C(=O)N[C@@H]1OC(C)=O |  | inactive | inactive |
| CO[C@@H]1C(=O)N[C@@H]1c1ccccc1 |  | inactive | inactive |
| CO[C@@H]1C(=O)N(C(C)=O)[C@@H]1c1ccccc1 | 1.6 |  |  |
| O=c1oc(Cl)c(Cl)c2ccccc12 | 0.1 |  |  |
| CCCC[C@@H]1C(=O)N([C@@H](C2SCCCS2)C2OC(C)(C)OC2C2COC(C)(C)O2)[C@@H]1/C(C)=C/c1ccccc1 (stereo not given in full) | 11 |  |  |
| CO[C@@H]1C(=O)N[C@@H]1/C=C/c1ccccc1 |  | inactive | inactive |
| CCCC[C@@H]1C(=O)N(C(C)=O)[C@@H]1C(C)=O | 45 |  |  |
| CO[C@@H]1C(=O)N(C(C)=O)[C@@H]1C(C)=O | 94 |  |  |
| CO[C@@H]1C(=O)N[C@@H]1/C(C)=C/c1ccccc1 |  | inactive | inactive |
| CO[C@H]1C(=O)N[C@H]1/C=C/c1ccccc1 |  | inactive | inactive |
| CO[C@H]1C(=O)N[C@H]1c1ccccc1 |  | inactive | inactive |
| CCCC[C@@H]1C(=O)N(C(C)=O)[C@@H]1/C(C)=C/c1ccccc1 | 43 |  |  |
| CO[C@@H]1C(=O)N(C(C)=O)[C@@H]1/C(C)=C/c1ccccc1 | 1.4 |  |  |
| CO[C@@H]1C(=O)N([C@@H](C2SCCCS2)C2OC(C)(C)OC2C2COC(C)(C)O2)[C@@H]1/C(C)=C/c1ccccc1 (stereo not given in full) | 18 |  |  |
| CCCC[C@@H]1C(=O)N[C@@H]1/C(C)=C/c1ccccc1 (stereo in doubt; 11) |  | inactive | inactive |
| CCCC[C@@H]1C(=O)N[C@@H]1C(C)=O |  | inactive | inactive |
